Results from article PMC3275588, “Cellular Growth Kinetics Distinguish a Cyclophilin Inhibitor from an HSP90 Inhibitor as a Selective Inhibitor of Hepatitis C Virus” (PLoS ONE, 2012).
Several values for one entry are separate records, joined by “and”; a condition that tells them apart may be missing. Equal entries are not always repeated. Where two headings read alike, the source gives them in different places.

Tests used:
[1] = system: HCV replicon cells; test: CellTiter-Glo intracellular ATP (cell viability); settings: three day assay
Protocol: (§1) Renilla luciferase replicon cell assays were performed as previously described. Calcein AM (Anaspec, Fremont, CA) and CellTiter-Glo (Promega, Madison, WI) readouts were performed as instructed by the manufacturer.

[2] = system: adapted HCV (2a) in dividing cells; test: Extracellular HCV titer in fully-infected dividing cultures; format: cell-based, hepatitis C virus
Protocol: As a comparative control, we performed the same compound-treatment using fully-infected cultures that were still dividing (see Materials and Methods). […] The inhibitory effect of 17-AAG was diminished only as the cell cultures reached confluence (days 3 and 4 post-compound addition) (Fig. 6B).
As a comparative control, fully-infected, growing cell cultures were prepared as well. Briefly, cells were plated at 25,000 cells/well on 12-well plates. After the cells adhered to the plate (four hours post-seeding), they were infected at an MOI of five using adapted HCV (2a) (see above). The HCV infection was permitted to spread until the cultures were fully infected (three days post-infection). Subsequently, compounds were added and extracellular medium was removed each day and analyzed as described above.

[3] = system: HCV replicon cells; test: Calcein AM intracellular esterase activity (cell viability)
Protocol: (§2) Using a stable cell line replicating a luciferase-encoding HCV replicon, we measured viral replication levels (Renilla luciferase) across a range of drug concentrations (2 nM to 44.4 µM) three days post drug addition. In parallel, we measured intracellular esterase activity as a surrogate for cell viability using the Calcein AM reagent.
as §1

[4] = system: Infectious HCV (2a) Min3 virus in non-dividing Lunet-CD81 cells; test: Extracellular HCV titer in HCV-infected non-dividing cultures; format: cell-based, hepatitis C virus; settings: for reduction of infectious HCV titer: 10×EC50 (0.35 µM)
Protocol: (§3) Because 17-AAG slows cellular proliferation at concentrations similar to its effective concentration for inhibiting HCV replication, we next assessed whether it inhibited HCV replication in non-dividing cells. We first established a non-dividing monolayer of Lunet-CD81 cells and then infected that monolayer with cell-culture adapted virus capable of spreading and infecting all of the cells in a culture. […] When the fully-infected non-dividing cultures were treated with DMSO alone, the extracellular viral titer remained relatively constant at between 10^5 and 10^6 TCID50/ml over time (Fig. 6A). […] The reduction in HCV titer caused by 17-AAG, may at least in part, result from the modest toxicity observed in the non-dividing monolayers at the concentrations used.
HCV-infected non-dividing cultures were established by methods adapted from Sainz and Chisari. Briefly, Lunet-CD81 cells were seeded in 12-well plates at a density of 50,000 cells/well. The plates were incubated over-night at 37°C and subsequently DMSO was added to 1% final concentration. Cells were allowed to grow to confluence over three days. Infectious HCV (2a) with three adaptive mutations (the Min3 virus) (core K78E, NS2 W879R, and NS4B K1761N) was then added to each well at an MOI of five. […] 200 µl aliquots of the extracellular medium were saved daily, stored at −80°C, and subsequently used for infectious viral titering. After three days, the compound-medium was refreshed and time points were collected for seven days. Viral titers as a percentage of the DMSO-treated control were measured through diluting the extracellular medium 40-fold and using it to infect naïve Lunet-CD81 cells. After 72 hours of incubation, intracellular HCV replication was measured by following NS3-4A protease cleavage of a europium-labeled peptide.

[5] = system: HCV replicon cells; test: Cellular growth by percent confluence (IncuCyte time-lapse microscopy); format: cell-based; settings: for effect on kinetics of cellular proliferation: 1 µM, % confluence every four hours; for minimum inhibitory concentration (MIC) for growth rate: lowest concentration with significant decrease in growth rate
Excerpt: To distinguish between these two mechanisms, we directly measured cellular confluence (the percent of the culture well occupied by cells, % confluence) every four hours and quantified cellular replication rates.
We next determined if 17-AAG slows cell growth at the same concentration at which it inhibits HCV replication. We quantified growth rate by assessing the change in % confluence between days 1 and 2 (% confluence/day) and measured the effect of growth rate as a function of dose.
(§4) To assess cellular growth, 96 well plates ImageLock plates (Essen Instruments, Ann Arbor, MI) were seeded at a density of 5×10^3 cells/well in culture medium without G418. Percent confluence was quantified using bright phase images (at 10× magnification) acquired of each well every four hours in an IncuCyte (Essen Instuments, Ann Arbor, MI). Alternatively, 7.5×10^4 cells/well were plated in 6 well plates. Each day post drug addition, cells were dislodged from the tissue culture plate using 350 µL trypsin-EDTA and then quenched with 150 µL fetal bovine serum. The number of cells that exclude trypan-blue was determined using the Vi-Cell (Beckman Coulter, Fullerton, CA) in triplicate.

[6] = system: non-dividing Lunet-CD81 monolayers; test: Cell number in non-dividing monolayers
Protocol: as §3

[7] = system: genotype 1a replicon cells; test: Cell number by count of Hoechst-stained nuclei; format: cell-based; settings: three days; for number of cells per image / effect on number of cells per image: 1 µM compound
Protocol: (§5) For direct assessment of cell number, genotype 1a replicon cells were seeded in 384 well plates at 1500 cells/well. Compounds were added as previously described. Cells were fixed in 1% paraformaldehyde (Electron Microscopy Sciences) and 25 µg/ml Hoechst 33342 (Invitrogen) in PBS for 30 minutes at room temperature. The fixed cells were washed twice with PBS, and images of each well were acquired with the ImageXpress Micro (Molecular Devices, Sunnyvale, CA). Nuclei were quantified with the cell scoring application in MetaXpress (Molecular Devices, Sunnyvale, CA).

[8] = system: HCV replicon cells; test: Trypan-blue exclusion viable cell count; format: cell-based; settings: 1 µM, multiple timepoints post drug addition
Protocol: Cells treated were trypsinized and quantified at multiple timepoints post drug addition (Fig. 5C).
as §4

[9] = system: HCVcc Min3 virus; test: Antiviral potency in rapidly-dividing virus-infected cells (NS3-4A protease activity); format: cell-based, hepatitis C virus
Protocol: To assess the antiviral potency of compounds in rapidly-dividing virus-infected cells. we adapted a method from a previously described assay. Briefly, 1500 cells per well were plated in 384 well-plates. Infection with the HCVcc Min3 virus (core K78E, NS2 W879R, and NS4B K1761N) was followed by addition of compound as described. After three days, intracellular NS3-4A protease activity was assessed. Luciferase, Calcein, CellTiter-Glo, and NS3-4A levels were expressed as a percent of the no-drug control.
Supplementary file pone.0030286.s001.tif: Figure S1 CsA and 17-AAG maintain potency, similar to rapidly-dividing replicon cells, in rapidly-dividing virus-infected cells. The normalized amount of virus, as measured by enzymatic activity of the NS3-4A protease, was determined as a function of dose. […] (TIF) Click here for additional data file.

[10] = system: luciferase-encoding HCV replicon; test: HCV replicon Renilla luciferase antiviral assay; format: cell-based, hepatitis C virus; settings: three days post drug addition
Protocol: as §2, §1

[11] = CellTiter-Glo intracellular ATP (cell viability)
Protocol: as §1

[12] = Calcein AM intracellular esterase activity (cell viability)
Protocol: as §2, §1

[13] = Cell number by count of Hoechst-stained nuclei; format: cell-based; settings: genotype 1a HCV replicon cells; Hoechst-stained nuclei, three days
Protocol: as §5

SMILES: C=CCNC1=C2C[C@@H](C)C[C@H](OC)[C@H](O)[C@@H](C)/C=C(\C)[C@H](OC(N)=O)[C@@H](OC)/C=C\C=C(/C)C(=O)NC(=CC1=O)C2=O [17-AAG, 17-(Allylamino)-17-demethoxygeldanamycin]
- CC50 ([1]; read-out: CC50 Intracellular ATP, CellTiter-Glo): 38 nM
- reduction of level of infectious HCV ([2]; dividing cells, 10×EC50, after 24 hours of treatment): roughly 2 logs
- CC50 ([3]; read-out: CC50 Calcein, intracellular esterase activity, three day assay): 21000 nM
- antiviral effect on HCV titer ([4]; non-dividing cell-culture model of HCV replication): little antiviral effect
- reduction of infectious HCV titer ([4]; non-dividing cells, Day 7): 0.3 log
- reduction of infectious HCV titer ([4]; non-dividing cells, day 2): 0.6 log
- growth rate ([5]; 22 nM, change in % confluence between days 1 and 2): 18.0+/−1.1 % confluence/day
- effect on kinetics of cellular proliferation [5]: slowed the kinetics of cellular proliferation significantly
- minimum inhibitory concentration (MIC) for growth rate [5]: 0.022 µM
- number of cells ([6]; non-dividing monolayers, 10×EC50): 74 % of the DMSO-treated control
- number of cells per image [7]: ~22 % of the controls
- CC50 ([7]; Hoechst-stained nuclei): 5 nM
- effect on number of viable cells [8]: reduced the number of viable cells equally effectively
- EC50 ([9]; rapidly-dividing virus-infected cells, NS3-4A protease activity, three days, read-out: EC50): 35 nM
- EC50 [10]: 12.1 nM and 12 nM

SMILES: COc1ccc2c(O[C@@H]3C[C@H]4C(=O)N[C@]5(C(=O)O)C[C@H]5/C=C\CCCCC[C@H](NC(=O)OC5CCCC5)C(=O)N4C3)cc(-c3csc(NC(C)C)n3)nc2c1 [BILN-2061]
- effect on viral titers ([2]; dividing and non-dividing cells, 10×EC50): inhibited viral titers in both dividing and non-dividing cells
- suppression of infectious HCV titer ([4]; non-dividing cells, 10×EC50, sustained over 7-day time course): 2 log
- effect on number of cells ([6]; human, 10 ×EC50): neither CsA nor BILN 2061-treatment decreased the number of cells
- EC50 ([9]; Hepatitis C virus, 72 h): 140 nM

SMILES: COc1cc2c(c(OC)c1OC)-c1ccc(OC)c(=O)cc1[C@@H](NC(C)=O)CC2 [Colchicine, colchicine]
- intracellular ATP signal ([1]; maximal effect): < 7 % of the untreated controls
- CC50 at 3 days [11]: 16 nM
- CC50 at 3 days [12]: > 44400 nM

SMILES: Nc1ccn([C@@H]2O[C@H](CO)[C@@H](O)C2(F)F)c(=O)n1 [Gemcitabine, gemcitabine]
- CC50 at 3 days [11]: 6 nM
- CC50 at 3 days [12]: > 44400 nM
- number of cells per image [7]: ~22 % of the controls
- CC50 at 3 days [13]: 4 nM
- EC50 ([10]; Hepatitis C virus, 72 h): 12 nM

SMILES: CNC(=O)c1c(-c2ccc(F)cc2)oc2cc(N(CCO)S(C)(=O)=O)c(C3CC3)cc12 [HCV-796]
- CC50 at 3 days [11]: > 44400 nM
- cytotoxicity (intracellular esterase activity) ([3]; 2 nM to 44.4 µM, three days): without any observable cytotoxicity
- CC50 at 3 days [12]: > 44400 nM
- effect on cell proliferation (growth rate as a function of dose) ([5]; any concentration tested): did not significantly impair cell proliferation at any concentration tested
- effect on number of cells per image [7]: Neither 1 µM CsA (Fig. 4C) nor HCV-796 (Fig. 4A) altered the number of cells per image
- toxicity by cell number ([7]; dose response): non-toxic at all concentrations tested
- CC50 at 3 days [13]: > 44400 nM
- effect on number of viable cells [8]: Neither CsA nor HCV-796 treatment affected cell viability
- EC50 ([10]; Hepatitis C virus, 72 h): 15 nM

SMILES: COc1ccc(C[C@H](N)C(=O)N[C@H]2[C@@H](O)[C@H](n3cnc4c(N(C)C)ncnc43)O[C@@H]2CO)cc1 [Puromycin, puromycin]
- CC50 at 3 days [11]: 516 nM
- difference between CC50 (toxic concentration) and EC50 (antiviral concentration) ([3]; Calcein assay vs replicon assay): ≤ 4 fold
- CC50 at 3 days [12]: 1070 nM
- effect on kinetics of cellular proliferation [5]: rapid elimination of cells
- minimum inhibitory concentration (MIC) for growth rate [5]: 0.205 µM
- effect on number of cells per image [7]: eliminated all cells
- CC50 at 3 days [13]: 52 nM
- effect on number of viable cells [8]: reduced the number of viable cells equally effectively
- EC50 ([10]; Hepatitis C virus, 72 h): 290 nM
